Experiments:
[1] = tested on: FAT-H14-23 (I936A, K955A, R962A, I998A, H1025A, K1032A); assay: Fluorescence anisotropy binding to FAT-H14-23 mutant; set-up: species or system human; details: both sites mutated
From the text: Expression plasmids for FAT (hFAK904-1052 WT and mutants H14, H23 and H14-23), Vin-FL (hVinculin1-1066) and Vin-T (hVinculin891-1066) were ordered from GenScript in the pET28(+) vector, adding a TEV cleavable N-terminal 6xHis tag to the expressed proteins. Mutant FAT-H14 contains the mutations I936A, H1025A, K1032A; FAT-H23 contains the mutations K955A, R962A, I998A and FAT-14-23 contains the combined mutations I936A, K955A, R962A, I998A, H1025A, K1032A. All plasmids were introduced into E.coli strain BL21(DE3) for expression. Cells were grown in LB media, induced with 1 mM IPTG at an OD (600 nm) of 0.6 and grown over night at 20 °C. […]
(§1) Binding curves were determined in a total of 20 µl in black 384 well plates, by titrating protein concentrations (typically up to 50 µM) at a fixed concentration of 25 nM FITC labelled LD peptides (Apeptide Co. Ltd) in 20 mM Tris pH7.5, 150 mM NaCl, 1mM TCEP. Anisotropy measurements were preformed at 22 °C on a Spark® Multimode microplate reader (Tecan) with polarizers, at an excitation wavelength of 485 nm and an emission wavelength of 535 nm (20 nm bandwidth). KD values were extracted by fitting a one-site binding model using the GraphPad Prism software, using the equation: Y = Bmax*X/(KD + X), where Y is the measured anisotropy, X the protein concentration and Bmax the maximal anisotropy value at binding saturation.

FAT-H23 and Vin-T = assay: svAUC peak integration, FAT-H23+LD2/4+Vin-T; format: binding, human; details: 30 µM FAT-H23 + 10 µM LD2/4 + 30 µM Vin-T
Procedure: (§2) For svAUC experiments, FAT and Vin-T proteins at 30 µM were incubated with 10 µM LD2/4 peptide in 20 mM Tris pH 7.5, 200 mM NaCl, 5% Glycerol and 1 mM TCEP. svAUC was performed at 20 °C at 48,000 rpm (Vin-T + LD1 + LD2, Fig. S2) or 58,000 rpm (FAT + LD2/4 + Vin-T; Fig. 3) in a XL-I analytical ultracentrifuge (Beckman-Coulter Inc.) equipped with both UV-VIS absorbance and Raleigh interference detection systems, using an An-50Ti rotor, and Epon-charcoal standard double-sector centerpieces (optical pathlength 12 mm or 4 mm for measurements at 100 µM shown in Fig. S2). Sedimentation profiles were recorded at 280 nm. Differential sedimentation coefficient distributions were calculated by least-squares boundary modelling of sedimentation velocity data using the continuous distribution c(s) Lamm equation model as implemented by SEDFIT [46]. These s values were corrected to standard conditions (water, 20 °C, and infinite dilution) using the program SEDNTERP [32] to get the corresponding standard s values (s20,w).

[2] = molecular target: T1, FAT domain of FAK (hFAK904-1052 WT) (Homo sapiens, UniProt Q05397); assay: Fluorescence anisotropy binding of FITC LD peptides to FAT-WT; details: versus single LD motifs
T1 construct: Expression plasmids for FAT (hFAK904-1052 WT and mutants H14, H23 and H14-23); 6xHis (TEV cleavable) (N, cleaved yes); made in house; host or cells: E. coli BL21(DE3)
T1 sequence (Q05397 904-1052): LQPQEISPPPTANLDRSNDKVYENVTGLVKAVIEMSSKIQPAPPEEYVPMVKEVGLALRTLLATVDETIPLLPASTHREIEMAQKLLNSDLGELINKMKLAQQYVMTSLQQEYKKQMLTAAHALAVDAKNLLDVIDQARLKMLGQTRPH
From the text: Expression plasmids for FAT (hFAK904-1052 WT and mutants H14, H23 and H14-23), Vin-FL (hVinculin1-1066) and Vin-T (hVinculin891-1066) were ordered from GenScript in the pET28(+) vector, adding a TEV cleavable N-terminal 6xHis tag to the expressed proteins. Mutant FAT-H14 contains the mutations I936A, H1025A, K1032A; FAT-H23 contains the mutations K955A, R962A, I998A and FAT-14-23 contains the combined mutations I936A, K955A, R962A, I998A, H1025A, K1032A. All plasmids were introduced into E.coli strain BL21(DE3) for expression. Cells were grown in LB media, induced with 1 mM IPTG at an OD (600 nm) of 0.6 and grown over night at 20 °C. Cells were pelleted at 6000 rpm and resuspended in 20 mM Tris pH8, 200 mM NaCl, 5% Glycerol, 10 mM imidazole, 2mM TCEP, 1mM PMSF supplemented with cOmplete protein inhibitor cocktail (Roche). Cells were lysed by sonication and insoluble components removed by centrifugation at 40 K for 1 h at 4 °C. Soluble lysates were cleared through 0.45 μm filters and loaded onto His-Trap affinity columns (Cytiva), washed with step gradients up to 30 mM imidazole and eluted with a gradient up to 500 mM imidazole. Peak-fractions were digested over night with TEV protease (molar ratio ~ 1: 20) at 4 °C. Proteins were diluted to 50 mM NaCl and loaded onto a Source 15Q column, washed with 20 mM Tris pH8, 50 mM NaCl, 5% Glycerol, 1mM TCEP and eluted with a gradient up to 1 M NaCl. Peak fractions were mixed with 1 ml of Ni-NTA beads to remove TEV and uncleaved protein, adding 10 mM imidazole to prevent non-specific binding. The flow-through was concentrated, loaded onto a Superdex200 16/60 column and eluted in 20 mM Tris pH8, 200 mM NaCl, 5% Glycerol, 2mM TCEP. Peak fractions were concentrated, aliquots flash frozen in LN2 and stored at -80 °C.
as §1

FAT-H14 = assay: svAUC peak integration, FAT-H14+LD2/4; format: binding, human; details: 30 µM FAT-H14 + 10 µM LD2/4
Procedure: as §2

FAT-WT = assay: svAUC peak integration, FAT-WT+LD2/4; format: binding, human
Procedure: as §2

[3] = tested on: GST-Vin-T and His-FAT-H14; assay: GST-pulldown of His-FAT with GST-Vin-T and LD2/4; format: binding, human; details: 30 µM GST-Vin-T, 10 µM LD2/4, 30 µM His-FAT, western blot anti-His
Procedure: 30 µM GST-Vin-T, 10 µM LD2/4 and 30 µM His-FAT proteins were incubated with glutathione sepharose beads for 1 h, centrifuged for 1 min at […] and washed 3x with 20 mM Tris pH 7.5, 150 mM NaCl, 0.1% Nonidet P40. Proteins co-sedimented with beads were resuspended in SDS Laemmli buffer, heated to 96 °C for 5 min and subjected to SDS-PAGE and western blotting. His-FAT proteins (WT or mutants) were detected using a primary mouse anti-His antibody (Proteintech) and a secondary HRP conjugated goat anti-mouse antibody (Merck).

FAT-H14 and Vin-T = assay: svAUC peak integration, FAT-H14+LD2/4+Vin-T; format: binding, human; details: 30 µM FAT-H14 + 10 µM LD2/4 + 30 µM Vin-T
Procedure: as §2

Vin-T = assay: svAUC peak integration, Vin-T+LD2/4; format: binding, human; details: 30 µM Vin-T + 10 µM LD2/4
Procedure: as §2

FAT-WT and Vin-T = assay: svAUC peak integration, FAT-WT+LD2/4+Vin-T; format: binding, human
Procedure: as §2

FAT-H23 = assay: svAUC peak integration, FAT-H23+LD2/4; format: binding, human; details: 30 µM FAT-H23 + 10 µM LD2/4
Procedure: as §2

[4] = 30 µM FAT-WT + 10 µM LD2/4, 20 °C, 280 nm
[5] = 30 µM FAT-WT + 10 µM LD2/4 + 30 µM Vin-T

Sequence: SNLSELDRLLLELNAVQHNGSGSGGSGGSGGSGGSGGSGGSGGSGGSATRELDELMASLSD [LD2/4]
- binding to FAT-H14-23, in words [1]: no significant binding
- c(Peak 1) [~ 1 s(S)] (FAT-H23 and Vin-T): 0.08
- c(Peak 2) [1-2 s(S)] (FAT-H23 and Vin-T): 0.80
- c(total) (FAT-H23 and Vin-T): 1.18
- c(Peak 3) [ >2 s(S)] (FAT-H23 and Vin-T; ~2.3 S peak): 0.30 and ≈ 0.30
- increase of affinity for FAT by presence of both LD motifs [2]: approximately 15 fold
- c(Peak 1) [~ 1 s(S)] (FAT-H14): 0.11
- c(Peak 2) [1-2 s(S)] (FAT-H14): 0.45
- c(Peak 3) [ >2 s(S)] (FAT-H14): 0.05
- c(total) (FAT-H14): 0.61
- c(total) (FAT-WT; 30 µM FAT-WT + 10 µM LD2/4): 0.58
- c(Peak 1) [~ 1 s(S)] (FAT-WT; [4]): 0.06
- c(Peak 2) [1-2 s(S)] (FAT-WT; [4]): 0.37
- c(Peak 3) [ >2 s(S)] (FAT-WT; 30 µM FAT-WT + 10 µM LD2/4, ~2.4 S peak, absence of Vin-T): 0.15
- His-FAT-H14 pulled down with GST-Vin-T [3]: only pulled down in the presence of the LD2/4 peptide
- c(Peak 2) [1-2 s(S)] (FAT-H14 and Vin-T): 0.57
- c(total) (FAT-H14 and Vin-T): 1.09
- c(Peak 3) [ >2 s(S)] (FAT-H14 and Vin-T; 2.4 S peak): 0.52
- c(Peak 1) [~ 1 s(S)] (Vin-T): 0.18
- c(Peak 2) [1-2 s(S)] (Vin-T): 0.59
- c(total) (Vin-T): 0.77
- c(Peak 2) [1-2 s(S)] (FAT-WT and Vin-T; [5]): 0.68
- c(total) (FAT-WT and Vin-T; [5]): 1.08
- c(Peak 3) [ >2 s(S)] (FAT-WT and Vin-T; 30 µM FAT-WT + 10 µM LD2/4 + 30 µM Vin-T, ~2.4 S peak): 0.40
- amount (c) of tripartite FAT:LD2/4:Vin-T complex (FAT-WT and Vin-T; difference of 2.4 S peak in presence and absence of Vin-T, FAT-WT): ≈ 0.25
- c(Peak 1) [~ 1 s(S)] (FAT-H23): 0.11
- c(Peak 2) [1-2 s(S)] (FAT-H23): 0.45
- c(Peak 3) [ >2 s(S)] (FAT-H23): 0.03
- c(total) (FAT-H23): 0.59
